Data: PMC12541620 (Acta Pharmaceutica Sinica. B, 2025)
Read-outs that look alike come from different tables or passages of the source.

Assays:
hCES2A [1] = target: T1, hCES2A (Homo sapiens, UniProt O00748); experiment: hCES2A inhibition assay; assay type: biochemical; settings: for Ratio: IC50 3 min / IC50 33 min
T1 sequence (O00748 27-559): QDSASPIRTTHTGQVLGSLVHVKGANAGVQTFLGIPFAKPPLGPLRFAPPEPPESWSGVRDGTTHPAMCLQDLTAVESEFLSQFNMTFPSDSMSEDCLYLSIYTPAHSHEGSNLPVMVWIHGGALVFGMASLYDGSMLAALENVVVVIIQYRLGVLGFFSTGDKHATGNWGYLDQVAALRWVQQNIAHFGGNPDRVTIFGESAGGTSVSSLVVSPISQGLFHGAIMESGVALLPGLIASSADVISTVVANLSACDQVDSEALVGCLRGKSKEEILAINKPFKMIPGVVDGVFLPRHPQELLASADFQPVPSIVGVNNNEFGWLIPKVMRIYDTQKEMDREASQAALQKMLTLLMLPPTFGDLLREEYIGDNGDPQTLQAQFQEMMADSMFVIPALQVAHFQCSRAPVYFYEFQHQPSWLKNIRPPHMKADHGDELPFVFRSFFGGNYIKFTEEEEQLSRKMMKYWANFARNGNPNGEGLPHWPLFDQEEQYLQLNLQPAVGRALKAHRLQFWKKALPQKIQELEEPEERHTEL

hAChE = hAChE (Homo sapiens, UniProt P22303); experiment: hAChE inhibition assay; assay type: biochemical
hAChE, sequence (P22303 32-614): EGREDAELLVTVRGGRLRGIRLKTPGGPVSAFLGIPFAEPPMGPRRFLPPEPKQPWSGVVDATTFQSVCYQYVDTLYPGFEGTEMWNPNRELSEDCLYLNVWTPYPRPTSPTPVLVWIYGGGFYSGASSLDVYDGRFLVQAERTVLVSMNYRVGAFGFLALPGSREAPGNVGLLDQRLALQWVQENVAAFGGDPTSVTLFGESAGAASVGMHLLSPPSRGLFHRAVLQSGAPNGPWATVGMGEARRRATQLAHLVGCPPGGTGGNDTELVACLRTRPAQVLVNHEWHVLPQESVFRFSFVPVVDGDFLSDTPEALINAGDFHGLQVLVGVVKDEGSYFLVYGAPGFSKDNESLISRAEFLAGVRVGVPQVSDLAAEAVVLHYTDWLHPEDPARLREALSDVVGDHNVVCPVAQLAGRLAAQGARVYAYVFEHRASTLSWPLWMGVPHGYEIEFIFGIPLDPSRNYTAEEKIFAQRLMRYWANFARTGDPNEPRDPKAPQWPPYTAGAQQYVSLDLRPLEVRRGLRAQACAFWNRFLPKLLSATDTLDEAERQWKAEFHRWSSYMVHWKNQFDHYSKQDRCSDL

[2] = test system: irinotecan-triggered gut toxicity (ITGT) in tumor-bearing mice; experiment: irinotecan-triggered gut toxicity in tumor-bearing mice; assay type: in vivo, C57BL/6J mice; settings: C3 25 and 50 mg/kg; LPA 10 mg/kg
hCES2A [3] = target: T1, hCES2A; experiment: dialysis assay; assay type: biochemical; settings: 10 μmol/L, 33 min preincubation, dialysis 2 and 4 h
[4] = IC50 (nmol/L) 3 min, 3 min pre-incubation, FD substrate
[5] = IC50 (nmol/L) 33 min, 33 min pre-incubation, FD substrate

Question: `COc1cc2c(cc1OC)C(=O)/C(=C/c1ccc(F)cc1)C2` [Compound B1] was tested. Which IC50 (hCES2A [1]) did it give?
Answer: 20900 nM

Question: How did the IC50 (hCES2A [1]) turn out when `COc1cc2c(cc1OC)C(=O)/C(=C/c1ccccc1Cl)C2` [Compound B2] was run?
Answer: 12100 nM

Question: `COc1cc2c(cc1OC)C(=O)/C(=C/c1ccccc1F)C2` [Compound B3] was tested. Which IC50 (hCES2A [1]) did it give?
Answer: 2970 nM

Question: With `COc1ccccc1/C=C1\Cc2cc(OC)c(OC)cc2C1=O` [Compound B4] as the compound, how does the IC50 (hCES2A [1]) read?
Answer: 5500 nM

Question: How did the IC50 (hCES2A [1]) turn out when `COc1cccc(/C=C2\Cc3cc(OC)c(OC)cc3C2=O)c1` [Compound B5] was run?
Answer: 64800 nM

Question: How did the IC50 (hCES2A [1]) turn out when `COc1ccc(/C=C2\Cc3cc(OC)c(OC)cc3C2=O)cc1` [Compound B6] was run?
Answer: 17900 nM

Question: For `COc1cc2c(cc1OC)C(=O)/C(=C/c1ccccc1O)C2` [Compound B7], which anti-hAChE activity (hAChE) is on record?
Answer: very weak anti-hAChE activity

Question: What about the “enhancement of anti-hCES2A effect relative to A3” value (hCES2A [1]) of the same compound?
Answer: 8.36 folds

Question: And the Ratio (hCES2A [1])?
Answer: 0.33

Question: And the IC50 (hCES2A [1]; [4])?
Answer: 106 ± 15.5 nM

Question: What about the IC50 (hCES2A [1]; [5]) of the same compound?
Answer: 325 ± 59.5 nM

Question: And the IC50 (hCES2A [1]; IC50 against hCES2A, FD substrate, 3 min preincubation)?
Answer: 110 nM

Question: For `COc1cc2c(cc1OC)C(=O)/C(=C/c1c(O)cccc1Br)C2` [Compound B20], which IC50 (hCES2A [1]) is on record?
Answer: 290 nM

Question: For `COc1cc2c(cc1OC)C(=O)/C(=C/c1cccc(OC)c1O)C2` [Compound B21], which IC50 (hCES2A [1]) is on record?
Answer: 400 nM

Question: Which Ratio (hCES2A [1]) does the source give for `COc1cc2c(cc1OC)C(=O)/C(=C/c1ccccc1OC(=O)N1CCN(C)CC1)C2` [Compound C7] here?
Answer: 7.32

Question: And the IC50 (hCES2A [1]; [4])?
Answer: 258 ± 37.8 nM

Question: What about the IC50 (hCES2A [1]; [5]) of the same compound?
Answer: 35.3 ± 3.67 nM

Question: Which results are given for `COc1cc2c(cc1OC)C(=O)/C(=C/c1ccccc1OC(=O)N1CCC(N3CCCCC3)CC1)C2` [Compound C8]?
Answer: Ratio (hCES2A [1]): 3.25; IC50 (hCES2A [1]; [4]): 732 ± 71.7 nM; IC50 (hCES2A [1]; [5]): 225 ± 13.4 nM

Question: `COc1cc2c(cc1OC)C(=O)C(CC1CCN(Cc3ccccc3)CC1)C2` (centres unmarked) [Donepezil, reference compound] was tested. Which IC50 (hCES2A [1]) did it give?
Answer: 3910 nM

Question: How did the “elevated colon IL-6, IL-1β and TNF-α levels” value [2] turn out when `CN(C)C(=O)C(CCN1CCC(O)(c2ccc(Cl)cc2)CC1)(c1ccccc1)c1ccccc1` [LPA, loperamide] was run?
Answer: reversed

Question: And the “hCES2A activity after dialysis” value (hCES2A [3])?
Answer: gradually recovering trend over time
